Species: Rattus norvegicus
Test: DrugMatrix - Regimen: Daily Repeat
Type: toxicity, organism-based, Sprague-Dawley
Design: regimen Daily Repeat, gender Male, age 6-8 weeks
Conditions: in vivo, po, route oral GAVAGE, […]; for POTASSIUM / SODIUM / TOTAL BILIRUBIN / TOTAL PROTEIN / URIC ACID / ALANINE AMINOTRANSFERASE / ALBUMIN / ALKALINE PHOSPHATASE / ASPARTATE AMINOTRANSFERASE / BLOOD UREA NITROGEN / CARBON DIOXIDE / CHLORIDE / CHOLESTEROL / CREATINE PHOSPHOKINASE / CREATININE / GLUCOSE / LIPASE / PHOSPHORUS / LACTATE DEHYDROGENASE: tissue Plasma; for ABSOLUTE BASOPHIL / ABSOLUTE EOSINOPHIL / ABSOLUTE LYMPHOCYTE / ABSOLUTE MONOCYTE / BASOPHIL / EOSINOPHIL / ERYTHROCYTE COUNT / HEMATOCRIT / HEMOGLOBIN / LEUKOCYTE COUNT / LYMPHOCYTE / MEAN CORPUSCULAR HEMOGLOBIN / MEAN CORPUSCULAR HEMOGLOBIN CONCENTRATION / MEAN CORPUSCULAR VOLUME / MONOCYTE / NEUTROPHIL / PLATELET COUNT: tissue Blood
[1] = 0 mg/kg, 72 h, dose level Control, time 3 day
[2] = 0 mg/kg, 120 h, dose level Control, time 5 day
[3] = 0 mg/kg, dose level Control, time 14 day
[4] = 15 mg/kg, 72 h, dose level High, time 3 day
[5] = 15 mg/kg, 120 h, dose level High, time 5 day
[6] = 15 mg/kg, dose level High, time 14 day

CC(CCc1ccc(O)cc1)NCCc1ccc(O)c(O)c1 (configuration not stated) [DOBUTAMINE]
POTASSIUM [1]: 6.13 MEQ/L
SODIUM [1]: 145 MEQ/L
TOTAL BILIRUBIN [1]: 0.43 mg/dL
TOTAL PROTEIN [1]: 6.7 G/DL
URIC ACID [1]: 0.83 mg/dL
ABSOLUTE BASOPHIL [2]: 33.3 cells/µL
ABSOLUTE EOSINOPHIL [2]: 56.7 cells/µL
ABSOLUTE LYMPHOCYTE [2]: 9220 cells/µL
ABSOLUTE MONOCYTE [2]: 230 cells/µL
BASOPHIL [2]: 0.3%
EOSINOPHIL [2]: 0.5%
ERYTHROCYTE COUNT [2]: 6.62 x10E6/uL
HEMATOCRIT [2]: 46.43%
HEMOGLOBIN [2]: 14.3 G/DL
LEUKOCYTE COUNT [2]: 10.96 x10E3/uL
LYMPHOCYTE [2]: 83.83%
MEAN CORPUSCULAR HEMOGLOBIN [2]: 21.57 pg
MEAN CORPUSCULAR HEMOGLOBIN CONCENTRATION [2]: 30.77 G/DL
MEAN CORPUSCULAR VOLUME [2]: 70.13 fL
MONOCYTE [2]: 2.1%
NEUTROPHIL [2]: 12.53%
PLATELET COUNT [2]: 1056.67 x10E3/uL
ALANINE AMINOTRANSFERASE [2]: 41.33 u/L
ALBUMIN [2]: 4.07 G/DL
ALKALINE PHOSPHATASE [2]: 603.33 u/L
ASPARTATE AMINOTRANSFERASE [2]: 80 u/L
BLOOD UREA NITROGEN [2]: 14.67 mg/dL
CARBON DIOXIDE [2]: 43 mmol/L
CHLORIDE [2]: 104 MEQ/L
CHOLESTEROL [2]: 88.33 mg/dL
CREATINE PHOSPHOKINASE [2]: 391.67 u/L
CREATININE [2]: 0.47 mg/dL
GLUCOSE [2]: 156 mg/dL
LIPASE [2]: 10.67 u/L
PHOSPHORUS [2]: 9.03 mg/dL
POTASSIUM [2]: 6.1 MEQ/L
SODIUM [2]: 145.67 MEQ/L
TOTAL BILIRUBIN [2]: 0.37 mg/dL
TOTAL PROTEIN [2]: 6.53 G/DL
URIC ACID [2]: 0.5 mg/dL
ABSOLUTE BASOPHIL [3]: 73.3 cells/µL
ABSOLUTE EOSINOPHIL [3]: 60 cells/µL
ABSOLUTE LYMPHOCYTE [3]: 12200 cells/µL
ABSOLUTE MONOCYTE [3]: 250 cells/µL
BASOPHIL [3]: 0.5%
EOSINOPHIL [3]: 0.37%
ERYTHROCYTE COUNT [3]: 7.33 x10E6/uL
HEMATOCRIT [3]: 44.3%
HEMOGLOBIN [3]: 14.77 G/DL
LEUKOCYTE COUNT [3]: 14.86 x10E3/uL
LYMPHOCYTE [3]: 81.87%
MEAN CORPUSCULAR HEMOGLOBIN [3]: 20.2 pg
MEAN CORPUSCULAR HEMOGLOBIN CONCENTRATION [3]: 33.33 G/DL
MEAN CORPUSCULAR VOLUME [3]: 60.57 fL
MONOCYTE [3]: 1.63%
NEUTROPHIL [3]: 14.93%
PLATELET COUNT [3]: 1101.67 x10E3/uL
ALANINE AMINOTRANSFERASE [3]: 31.67 u/L
ALBUMIN [3]: 3.83 G/DL
ALKALINE PHOSPHATASE [3]: 430.67 u/L
ASPARTATE AMINOTRANSFERASE [3]: 87 u/L
BLOOD UREA NITROGEN [3]: 14.33 mg/dL
CARBON DIOXIDE [3]: 39 mmol/L
CHLORIDE [3]: 104 MEQ/L
CHOLESTEROL [3]: 66 mg/dL
CREATINE PHOSPHOKINASE [3]: 441.67 u/L
CREATININE [3]: 0.7 mg/dL
GLUCOSE [3]: 125.67 mg/dL
LACTATE DEHYDROGENASE [3]: 397.67 u/L
LIPASE [3]: 12.33 u/L
PHOSPHORUS [3]: 9.87 mg/dL
POTASSIUM [3]: 5.93 MEQ/L
SODIUM [3]: 145 MEQ/L
TOTAL BILIRUBIN [3]: 0.37 mg/dL
TOTAL PROTEIN [3]: 6.27 G/DL
URIC ACID [3]: 0.67 mg/dL
ABSOLUTE BASOPHIL [4]: 23.3 cells/µL
ABSOLUTE EOSINOPHIL [4]: 50 cells/µL
ABSOLUTE LYMPHOCYTE [4]: 6060 cells/µL
ABSOLUTE MONOCYTE [4]: 170 cells/µL
BASOPHIL [4]: 0.3%
EOSINOPHIL [4]: 0.67%
ERYTHROCYTE COUNT [4]: 6.67 x10E6/uL
HEMATOCRIT [4]: 46.03%
HEMOGLOBIN [4]: 14.2 G/DL
LEUKOCYTE COUNT [4]: 8.35 x10E3/uL
LYMPHOCYTE [4]: 72.8%
MEAN CORPUSCULAR HEMOGLOBIN [4]: 21.33 pg
MEAN CORPUSCULAR HEMOGLOBIN CONCENTRATION [4]: 30.87 G/DL
MEAN CORPUSCULAR VOLUME [4]: 69.1 fL
MONOCYTE [4]: 2.07%
NEUTROPHIL [4]: 23.9%
PLATELET COUNT [4]: 1110.33 x10E3/uL
ALANINE AMINOTRANSFERASE [4]: 48.33 u/L
ALBUMIN [4]: 4.07 G/DL
ALKALINE PHOSPHATASE [4]: 498.67 u/L
ASPARTATE AMINOTRANSFERASE [4]: 85.67 u/L
BLOOD UREA NITROGEN [4]: 18.67 mg/dL
CARBON DIOXIDE [4]: 41.67 mmol/L
CHLORIDE [4]: 105 MEQ/L
CHOLESTEROL [4]: 71.67 mg/dL
CREATINE PHOSPHOKINASE [4]: 568.67 u/L
CREATININE [4]: 0.6 mg/dL
GLUCOSE [4]: 196 mg/dL
LIPASE [4]: 199.67 u/L
PHOSPHORUS [4]: 9.2 mg/dL
POTASSIUM [4]: 5.77 MEQ/L
SODIUM [4]: 147.67 MEQ/L
TOTAL BILIRUBIN [4]: 0.43 mg/dL
TOTAL PROTEIN [4]: 6.67 G/DL
URIC ACID [4]: 0.6 mg/dL
ABSOLUTE BASOPHIL [5]: 26.7 cells/µL
ABSOLUTE EOSINOPHIL [5]: 26.7 cells/µL
ABSOLUTE LYMPHOCYTE [5]: 7530 cells/µL
ABSOLUTE MONOCYTE [5]: 170 cells/µL
BASOPHIL [5]: 0.27%
EOSINOPHIL [5]: 0.33%
ERYTHROCYTE COUNT [5]: 6.8 x10E6/uL
HEMATOCRIT [5]: 46.17%
HEMOGLOBIN [5]: 14.17 G/DL
LEUKOCYTE COUNT [5]: 9.18 x10E3/uL
LYMPHOCYTE [5]: 82.07%
MEAN CORPUSCULAR HEMOGLOBIN [5]: 20.87 pg
MEAN CORPUSCULAR HEMOGLOBIN CONCENTRATION [5]: 30.73 G/DL
MEAN CORPUSCULAR VOLUME [5]: 67.93 fL
MONOCYTE [5]: 1.87%
NEUTROPHIL [5]: 15%
PLATELET COUNT [5]: 1523.67 x10E3/uL
ALANINE AMINOTRANSFERASE [5]: 40.67 u/L
ALBUMIN [5]: 4.2 G/DL
ALKALINE PHOSPHATASE [5]: 613.33 u/L
ASPARTATE AMINOTRANSFERASE [5]: 74.67 u/L
BLOOD UREA NITROGEN [5]: 17 mg/dL
CARBON DIOXIDE [5]: 40.67 mmol/L
CHLORIDE [5]: 107.33 MEQ/L
CHOLESTEROL [5]: 84.33 mg/dL
CREATINE PHOSPHOKINASE [5]: 393 u/L
CREATININE [5]: 0.53 mg/dL
GLUCOSE [5]: 174.33 mg/dL
LIPASE [5]: 199.33 u/L
PHOSPHORUS [5]: 10.1 mg/dL
POTASSIUM [5]: 6.07 MEQ/L
SODIUM [5]: 149.33 MEQ/L
TOTAL BILIRUBIN [5]: 0.4 mg/dL
TOTAL PROTEIN [5]: 6.73 G/DL
URIC ACID [5]: 0.87 mg/dL
ABSOLUTE BASOPHIL [6]: 52 cells/µL
ABSOLUTE EOSINOPHIL [6]: 40 cells/µL
ABSOLUTE LYMPHOCYTE [6]: 9620 cells/µL
ABSOLUTE MONOCYTE [6]: 200 cells/µL
BASOPHIL [6]: 0.42%
EOSINOPHIL [6]: 0.34%
ERYTHROCYTE COUNT [6]: 7.05 x10E6/uL
HEMATOCRIT [6]: 43.9%
HEMOGLOBIN [6]: 14.6 G/DL
LEUKOCYTE COUNT [6]: 12.04 x10E3/uL
LYMPHOCYTE [6]: 79.76%
MEAN CORPUSCULAR HEMOGLOBIN [6]: 20.7 pg
MEAN CORPUSCULAR HEMOGLOBIN CONCENTRATION [6]: 33.26 G/DL
MEAN CORPUSCULAR VOLUME [6]: 62.28 fL
MONOCYTE [6]: 1.68%
NEUTROPHIL [6]: 17.28%
PLATELET COUNT [6]: 1124.2 x10E3/uL
ALANINE AMINOTRANSFERASE [6]: 35 u/L
ALBUMIN [6]: 4.04 G/DL
ALKALINE PHOSPHATASE [6]: 405.4 u/L
ASPARTATE AMINOTRANSFERASE [6]: 77.8 u/L
BLOOD UREA NITROGEN [6]: 14 mg/dL
CARBON DIOXIDE [6]: 43.2 mmol/L
CHLORIDE [6]: 103 MEQ/L
CHOLESTEROL [6]: 69.8 mg/dL
CREATINE PHOSPHOKINASE [6]: 325.8 u/L
CREATININE [6]: 0.8 mg/dL
GLUCOSE [6]: 144.4 mg/dL
LACTATE DEHYDROGENASE [6]: 182.2 u/L
LIPASE [6]: 12.2 u/L
PHOSPHORUS [6]: 10.48 mg/dL
POTASSIUM [6]: 6.04 MEQ/L
SODIUM [6]: 147 MEQ/L
TOTAL BILIRUBIN [6]: 0.36 mg/dL
TOTAL PROTEIN [6]: 6.56 G/DL
URIC ACID [6]: 0.66 mg/dL

From ChEMBL document CHEMBL3885881, “DrugMatrix”
